According to patent publication US20240050428A1 (Cullgen (Shanghai), Inc., priority 2020, published 2024):
Where two headings read alike, the source gives them in different places.

Key:
MOLM-13 cells = assay: Cell viability assay (CellTiter-Glo) in MOLM-13 cells, alone or with gilteritinib; format: cell-based; details: Homo sapiens, MOLM-13 cells, three days, CellTiter-Glo
MV4;11 cells = assay: Cell viability assay (CellTiter-Glo) in MV4;11 cells, alone or with gilteritinib; format: cell-based; details: Homo sapiens, MV4;11 cells, three days, CellTiter-Glo, read-out: MV4
[1] = MOLM-13, 72 h, compound alone (without gilteritinib), read-out: MOLM-13 IC50
[2] = MOLM-13, 72 h, with gilteritinib 20 nM, read-out: MOLM-13 IC50 gilteritinib
[3] = MV4-11, 72 h, compound alone (without gilteritinib), 11 IC50
[4] = MV4-11, 72 h, with gilteritinib 10 nM, 11 IC50 gilteritinib
[5] = MOLM-13, 72 h, compound with gilteritinib 20 nM, read-out: MOLM-13 IC50 gilteritinib
[6] = MV4-11, 72 h, compound with gilteritinib 10 nM, 11 IC50 gilteritinib

Row | Compound | IC50 (MOLM-13 cells; [1]) [nM] | IC50 (MOLM-13 cells; [2]) [nM] | IC50 (MV4;11 cells; [3]) [nM] | IC50 (MV4;11 cells; [4]) [nM] | IC50 (MOLM-13 cells; [5]) [nM] | IC50 (MV4;11 cells; [6]) [nM] | IC50 (MOLM-13 cells; 72 h, compound alone (without gilteritinib), read-out: MOLM-13 IC50) [nM] | IC50 (MOLM-13 cells; 72 h, with gilteritinib 20 nM, read-out: MOLM-13 IC50 gilteritinib) [nM] | IC50 (MV4;11 cells; 72 h, compound alone (without gilteritinib), 11 IC50) [nM] | IC50 (MV4;11 cells; 72 h, with gilteritinib 10 nM, 11 IC50 gilteritinib) [nM]
1 | O=C1CCC(N2C(=O)c3ccc(NCCCCCC4(N5CCC(n6cc(-c7cnc8ccccc8n7)cn6)CC5)CC4)cc3C2=O)C(=O)N1 (stereo not drawn) [GS-123, 2-(2,6-Dioxopiperidin-3-yl)-5-((5-(1-(4-(4-(quinoxalin-2-yl)-1H-pyrazol-1-yl)piperidin-1-yl)cyclopropyl)pentyl)amino)isoindoline-1,3-dione] | > 1000 | < 10 | 100 to 1000 | 100 to 1000 | – | – | – | – | – | –
2 | O=C1CCC(N2C(=O)c3ccc(NCCCCCCn4cc(-c5cnc6cccc(Cl)c6n5)cn4)cc3C2=O)C(=O)N1 (stereo not drawn) [GS-376, 5-((6-(4-(8-Chloroquinoxalin-2-yl)-1H-pyrazol-1-yl)hexyl)amino)-2-(2,6-dioxopiperidin-3-yl)isoindoline-1,3-dione] | > 1000 | 10 to 100 | 100 to 1000 | 10 to 100 | – | – | – | – | – | –
3 | O=C1CCC(N2C(=O)c3ccc(NCCC[C@H]4C[C@H](n5cc(-c6cc(Cl)ccn6)cn5)C4)cc3C2=O)C(=O)N1 (stereo partly drawn) [GS-328, 5-((3-(trans-3-(4-(4-Chloropyridin-2-yl)-1H-pyrazol-1-yl)cyclobutyl)propyl)amino)-2-(2,6-dioxopiperidin-3-yl)isoindoline-1,3-dione] | > 1000 | 10 to 100 | 100 to 1000 | 10 to 100 | – | – | – | – | – | –
4 | O=C1CCC(N2C(=O)c3ccc(NCCCCCCN4CCC(C5CCC(O)CC5)CC4)cc3C2=O)C(=O)N1 (stereo not drawn) [GS-335, 2-(2,6-Dioxopiperidin-3-yl)-5-((6-(4-(4-hydroxycyclohexyl)piperidin-1-yl)hexyl)amino)isoindoline-1,3-dione] | > 1000 | 100 to 1000 | > 1000 | > 1000 | – | – | – | – | – | –
5 | O=C1CCC(N2C(=O)c3ccc(NC4CCC(CCCn5cc(-c6cnc7ccccc7n6)cn5)CC4)cc3C2=O)C(=O)N1 (stereo not drawn) [GS-184, 2-(2,6-Dioxopiperidin-3-yl)-5-((4-(3-(4-(quinoxalin-2-yl)-1H-pyrazol-1-yl)propyl)cyclohexyl)amino)isoindoline-1,3-dione] | > 1000 | 100 to 1000 | 100 to 1000 | > 1000 | – | – | – | – | – | –
6 | O=C1CCC(N2Cc3ccc(CCCCCC(=O)N4CCN(c5ccccn5)CC4)cc3C2=O)C(=O)N1 (stereo not drawn) [GS-103, 3-(1-Oxo-6-(6-oxo-6-(4-(pyridin-2-yl)piperazin-1-yl)hexyl)isoindolin-2-yl)piperidine-2,6-dione] | – | – | – | – | – | – | > 1000 | 100 to 1000 | > 1000 | 100 to 1000
7 | CN1CCC(c2ccc3nc(-c4cnn([C@H]5C[C@@H](CCCNc6ccc7c(c6)C(=O)N(C6CCC(=O)NC6=O)C7=O)C5)c4)cnc3c2)CC1 (stereo partly drawn) [GS-432, 2-(2,6-dioxopiperidin-3-yl)-5-((3-(cis-3-(4-(6-(1-methylpiperidin-4-yl)quinoxalin-2-yl)-1H-pyrazol-1-yl)cyclobutyl)propyl)amino)isoindoline-1,3-dione] | > 1000 | – | > 1000 | – | 10 to 100 | 10 to 100 | – | – | – | –
8 | O=C1CCC(N2C(=O)c3ccc(NCCCn4cc(-c5cnc6ccccc6n5)cn4)cc3C2=O)C(=O)N1 (stereo not drawn) [GS-355, 2-(2,6-Dioxopiperidin-3-yl)-5-((3-(4-(quinoxalin-2-yl)-1H-pyrazol-1-yl)propyl)amino)isoindoline-1,3-dione] | > 1000 | 100 to 1000 | > 1000 | 10 to 100 | – | – | – | – | – | –
9 | O=C1CCC(N2C(=O)c3ccc(NC[C@H]4C[C@H](n5nc(C6CC6)c6ccncc65)C4)cc3C2=O)C(=O)N1 (stereo partly drawn) [GS-473, 5-(((trans-3-(3-cyclopropyl-1H-pyrazolo[3,4-c]pyridin-1-yl)cyclobutyl)methyl)amino)-2-(2,6-dioxopiperidin-3-yl)isoindoline-1,3-dione] | > 1000 | – | > 1000 | – | > 1000 | > 1000 | – | – | – | –

More lines, main results first:

Row | IC50 (MOLM-13 cells; [1]) [nM] | IC50 (MOLM-13 cells; [2]) [nM] | IC50 (MV4;11 cells; [3]) [nM] | IC50 (MV4;11 cells; [4]) [nM] | IC50 (MOLM-13 cells; [5]) [nM] | IC50 (MV4;11 cells; [6]) [nM] | Compound | IC50 (MOLM-13 cells; 72 h, compound alone (without gilteritinib), read-out: MOLM-13 IC50) [nM] | IC50 (MOLM-13 cells; 72 h, with gilteritinib 20 nM, read-out: MOLM-13 IC50 gilteritinib) [nM] | IC50 (MV4;11 cells; 72 h, compound alone (without gilteritinib), 11 IC50) [nM] | IC50 (MV4;11 cells; 72 h, with gilteritinib 10 nM, 11 IC50 gilteritinib) [nM]
10 | 100 to 1000 | 10 to 100 | 10 to 100 | < 10 | – | – | O=C1CCC(N2Cc3ccc(CCCCCC(=O)N4CCC(n5cc(-c6ccc7ccccc7n6)cn5)CC4)cc3C2=O)C(=O)N1 (stereo not drawn) [GS-102, 3-(1-Oxo-6-(6-oxo-6-(4-(4-(quinolin-2-yl)-1H-pyrazol-1-yl)piperidin-1-yl)hexyl)isoindolin-2-yl)piperidine-2,6-dione] | – | – | – | –
11 | 10 to 100 | < 10 | 10 to 100 | < 10 | – | – | COc1ccnc(-c2cn([C@H]3C[C@H](CNc4ccc5c(c4)C(=O)N(C4CCC(=O)NC4=O)C5=O)C3)nc2C2CC2)c1 (stereo partly drawn) [GS-254, 5-(((trans-3-(3-Cyclopropyl-4-(4-methoxypyridin-2-yl)-1H-pyrazol-1-yl)cyclobutyl)methyl)amino)-2-(2,6-dioxopiperidin-3-yl)isoindoline-1,3-dione] | – | – | – | –
12 | 10 to 100 | < 10 | < 10 | < 10 | – | – | O=C1CCC(N2Cc3ccc(CCCCCC(=O)N4CCC(n5cc(-c6cnc7ccccc7n6)cn5)CC4)cc3C2=O)C(=O)N1 (stereo not drawn) [GS-101, 3-(1-Oxo-6-(6-oxo-6-(4-(4-(quinoxalin-2-yl)-1H-pyrazol-1-yl)piperidin-1-yl)hexyl)isoindolin-2-yl)piperidine-2,6-dione] | – | – | – | –
13 | 10 to 100 | – | 10 to 100 | – | < 10 | < 10 | CN1CCN(c2ccc3ncc(-c4cn([C@H]5C[C@H](CNc6ccc7c(c6)C(=O)N(C6CCC(=O)NC6=O)C7=O)C5)nc4C4CC4)nc3c2)CC1 (stereo partly drawn) [GS-463, 5-(((trans-3-(3-cyclopropyl-4-(7-(4-methylpiperazin-1-yl)quinoxalin-2-yl)-1H-pyrazol-1-yl)cyclobutyl)methyl)amino)-2-(2,6-dioxopiperidin-3-yl)isoindoline-1,3-dione] | – | – | – | –
14 | < 10 | < 10 | < 10 | < 10 | – | – | O=C1CCC(N2C(=O)c3ccc(NC[C@H]4C[C@H](n5cc(-c6ncccc6OC(F)(F)F)c(C6CC6)n5)C4)cc3C2=O)C(=O)N1 (stereo partly drawn) [GS-287, 5-(((trans-3-(3-Cyclopropyl-4-(3-(trifluoromethoxy)pyridin-2-yl)-1H-pyrazol-1-yl)cyclobutyl)methyl)amino)-2-(2,6-dioxopiperidin-3-yl)isoindoline-1,3-dione] | – | – | – | –
15 | 10 to 100 | – | 10 to 100 | – | < 10 | 10 to 100 | CN1CCC(c2ccc3nc(-c4cnn([C@H]5C[C@H](CCCNc6ccc7c(c6)C(=O)N(C6CCC(=O)NC6=O)C7=O)C5)c4)cnc3c2)CC1 (stereo partly drawn) [GS-419, 2-(2,6-dioxopiperidin-3-yl)-5-((3-(trans-3-(4-(6-(1-methylpiperidin-4-yl)quinoxalin-2-yl)-1H-pyrazol-1-yl)cyclobutyl)propyl)amino)isoindoline-1,3-dione] | – | – | – | –
16 | 100 to 1000 | 10 to 100 | 10 to 100 | < 10 | – | – | O=C1CCC(N2C(=O)c3ccc(NCCC[C@H]4C[C@H](n5cc(-c6nccc(N7CCOCC7)n6)cn5)C4)cc3C2=O)C(=O)N1 (stereo partly drawn) [GS-240, 2-(2,6-Dioxopiperidin-3-yl)-5-((3-(trans-3-(4-(4-morpholinopyrimidin-2-yl)-1H-pyrazol-1-yl)cyclobutyl)propyl)amino)isoindoline-1,3-dione] | – | – | – | –
17 | 10 to 100 | < 10 | 10 to 100 | 10 to 100 | – | – | O=C1CCC(N2C(=O)c3ccc(NCCCC4CC(n5cc(-c6cnc7ccc(N8CCOCC8)cc7n6)cn5)C4)cc3C2=O)C(=O)N1 (stereo not drawn) [GS-173, 2-(2,6-Dioxopiperidin-3-yl)-5-((3-(3-(4-(7-morpholinoquinoxalin-2-yl)-1H-pyrazol-1-yl)cyclobutyl)propyl)amino)isoindoline-1,3-dione] | – | – | – | –
18 | 100 to 1000 | – | 100 to 1000 | – | 10 to 100 | 10 to 100 | O=C1CCC(N2C(=O)c3ccc(NCCCCCCn4cc(-c5cnc6cc(Br)ccc6n5)cn4)cc3C2=O)C(=O)N1 (stereo not drawn) [GS-517, 5-((6-(4-(6-Bromoquinoxalin-2-yl)-1H-pyrazol-1-yl)hexyl)amino)-2-(2,6-dioxopiperidin-3-yl)isoindoline-1,3-dione] | – | – | – | –
19 | 100 to 1000 | – | 10 to 100 | – | 10 to 100 | 10 to 100 | CC(C)c1cccc(-c2cnn([C@H]3C[C@H](CCCNc4ccc5c(c4)C(=O)N(C4CCC(=O)NC4=O)C5=O)C3)c2)n1 (stereo partly drawn) [GS-453, 2-(2,6-dioxopiperidin-3-yl)-5-((3-(trans-3-(4-(6-isopropylpyridin-2-yl)-1H-pyrazol-1-yl)cyclobutyl)propyl)amino)isoindoline-1,3-dione] | – | – | – | –
20 | 100 to 1000 | – | 10 to 100 | – | 10 to 100 | < 10 | CNC(=O)c1nn([C@H]2C[C@H](CNc3ccc4c(c3)C(=O)N(C3CCC(=O)NC3=O)C4=O)C2)cc1-c1cccc(C)n1 (stereo partly drawn) [GS-637, 1-(trans-3-(((2-(2,6-dioxopiperidin-3-yl)-1,3-dioxoisoindolin-5-yl)amino)methyl)cyclobutyl)-N-methyl-4-(6-methylpyridin-2-yl)-1H-pyrazole-3-carboxamide] | – | – | – | –
21 | 10 to 100 | – | 10 to 100 | – | < 10 | < 10 | COc1cccnc1-c1cnn([C@H]2C[C@H](CCCNc3ccc4c(c3)C(=O)N(C3CCC(=O)NC3=O)C4=O)C2)c1 (stereo partly drawn) [GS-494, 2-(2,6-Dioxopiperidin-3-yl)-5-((3-(trans-3-(4-(3-methoxypyridin-2-yl)-1H-pyrazol-1-yl)cyclobutyl)propyl)amino)isoindoline-1,3-dione] | – | – | – | –
